Source: patent US20260000676A1, “CHROMAN DERIVATIVES AS ESTROGEN RECEPTOR DEGRADERS” (THE REGENTS OF THE UNIVERSITY OF MICHIGAN, priority 2022, published 2026)
Structures can show the parent of a compound that is named as a salt.

Legend:
[1] = molecular target: T1, ER (Homo sapiens (Human), UniProt P03372); assay: In-cell western (ICW) ER degradation assay in MCF-7 cells; type: cell-based; details: MCF7, 16 hrs; for Dmax: MCF7, maximal ER degradation; for DC50: ER degradation
Procedure: (§1) ERa degradative activity of compounds can be assessed in MCF-7 and T47D Cells. MCF-7 and T47D cell are seeded and are subsequently treated with the compounds at certain concentrations (e.g., 0.02 to 300 nM). DMSO can be used as vehicle control. Cells are fixed and are blocked with Intercept (PBS) Blocking Buffer (e.g., Li-COR, Odyssey Blocking Buffer), and are stained with ER (e.g., 1:500, Cell signaling) primary antibody for overnight at cold room. Secondary Antibody (e.g., IRDye 800CW Goat anti-Rabbit IgG) and CellTag 700 Stain are added in Intercept (PBS) Blocking Buffer. Finally, cell plate is placed in incubator to dry. Image and signal are captured on Odyssey® DLx Imaging System.
(§2) Day 3: After 16 hrs of compounds treatment, cells were fixed by 4% PFA and permeabilized with elution buffer (0.1% Triton X-100 in 1% PBS Solution). Subsequently, cells were blocked with Intercept (PBS) Blocking Buffer (Li-COR, Odyssey Blocking Buffer), and were stained with ER (1:500, Cell signaling) primary antibody for overnight at cold room.
(§3) Day 4: Remove the buffer, add IRDye 800CW Goat anti-Rabbit IgG Secondary Antibody (1:2000) and CellTag 700 Stain (1:500) in Intercept (PBS) Blocking Buffer. Finally, cell plate is placed in incubator to dry. Image and signal were captured on Odyssey® DLx Imaging System.

[2] = molecular target: T1, ER; assay: In-cell western (ICW) ER degradation assay in T47D cells; type: cell-based; details: 16 hrs; for Dmax: maximal ER degradation; for DC50: ER degradation
Procedure: as §1, §2, §3

T1 sequence (P03372 whole entry): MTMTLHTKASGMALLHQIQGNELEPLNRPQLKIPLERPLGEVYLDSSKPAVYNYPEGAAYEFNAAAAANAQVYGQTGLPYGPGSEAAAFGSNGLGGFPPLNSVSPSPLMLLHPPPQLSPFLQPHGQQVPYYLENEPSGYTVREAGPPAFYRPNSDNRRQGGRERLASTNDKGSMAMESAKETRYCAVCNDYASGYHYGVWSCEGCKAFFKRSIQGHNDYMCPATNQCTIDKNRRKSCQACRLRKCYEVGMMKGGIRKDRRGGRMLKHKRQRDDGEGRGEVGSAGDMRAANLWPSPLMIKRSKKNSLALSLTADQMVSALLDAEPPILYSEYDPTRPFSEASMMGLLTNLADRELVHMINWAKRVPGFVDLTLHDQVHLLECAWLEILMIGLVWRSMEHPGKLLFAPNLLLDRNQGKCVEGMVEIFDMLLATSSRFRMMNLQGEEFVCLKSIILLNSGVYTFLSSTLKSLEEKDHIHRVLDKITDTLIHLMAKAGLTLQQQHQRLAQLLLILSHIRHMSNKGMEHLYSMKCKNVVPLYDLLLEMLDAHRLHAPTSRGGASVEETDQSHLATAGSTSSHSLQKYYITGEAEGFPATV

| SMILES | Dmax [1] [%] | Dmax [2] [%] | DC50 [1] [nM] | DC50 [2] [nM] |
| --- | --- | --- | --- | --- |
| COc1cccc([C@H]2COc3cc(O)ccc3[C@H]2c2ccc(N3CCC(CN4CCN5c6ccc7c(c6OC[C@H]5C4)CN(C4CCC(=O)NC4=O)C7=O)CC3)cc2)c1 (single isomer, unassigned) [Compound A33, 3-((R)-7-((1-(4-((3S,4R)-7-hydroxy-3-(3-methoxyphenyl)chroman-4-yl)phenyl)piperidin-4-yl)methyl)-1-oxo-1,3,5,5a,6,7,8,9-octahydro-2H-pyrazino[1′,2′:4,5][1,4]oxazino[2,3-e]isoindol-2-yl)piperidine-2,6-dione] | 50 to 75 | 50 to 75 | – | – |
| O=C1CCC(N2Cc3cc4c(cc3C2=O)OC[C@@H]2CN(CC3CCN(c5ccc([C@@H]6c7ccc(O)cc7OC[C@@H]6c6ccccc6)cc5F)CC3)CCN42)C(=O)N1 (single isomer, unassigned) [Compound A2, 3-((S)-3-((1-(2-fluoro-4-((3S,4R)-7-hydroxy-3-phenylchroman-4-yl)phenyl)piperidin-4-yl)methyl)-8-oxo-1,2,3,4,4a, 5,8,10-octahydro-9H-pyrazino[1′,2′:4,5][1,4]oxazino[2,3-f]isoindol-9-yl)piperidine-2,6-dione] | – | – | 1 to 10 | – |
| O=C1CCC(N2Cc3cc4c(cc3C2=O)OC[C@@H]2CN(CC3CCN(c5ccc([C@@H]6c7ccc(O)cc7OC[C@@H]6c6ccccc6)cc5)CC3)CCN42)C(=O)N1 (single isomer, unassigned) [Compound A1] | 50 to 75 | – | 1 to 10 | – |
| COc1cc(N2CCC(CN3CCN4c5ccc6c(c5OC[C@@H]4C3)CN([C@@H]3CCC(=O)NC3=O)C6=O)CC2)ccc1[C@H]1c2ccc(O)cc2OC[C@H]1c1ccccc1 (single isomer, unassigned) [Compound A121, (R)-3-((S)-7-((1-(4-((3R,4S)-7-hydroxy-3-phenylchroman-4-yl)-3-methoxyphenyl)piperidin-4-yl)methyl)-1-oxo-1,3,5,5a, 6,7,8,9-octahydro-2H-pyrazino[1′,2′:4,5][1,4]oxazino[2,3-e]isoindol-2-yl)piperidine-2,6-dione] | – | – | < 1 | < 1 |
| O=C1CC[C@@H](N2Cc3c(ccc4c3OC[C@H]3CN(CC5CC6(CCN(c7ccc([C@@H]8c9ccc(O)cc9OC[C@@H]8c8ccccc8)cc7)CC6)C5)CCN43)C2=O)C(=O)N1 (single isomer, unassigned) [Compound A89] | ≥ 75 | ≥ 75 | < 1 | < 1 |
| O=C1CCC(N2Cc3cc4c(cc3C2=O)OCC42CCN(CC3CC4(CCN(c5ccc([C@H]6c7ccc(O)cc7OC[C@H]6c6ccccc6)cn5)CC4)C3)CC2)C(=O)N1 (stereo partly drawn) [Compound A123, 3-(1′-((7-(5-((3R,4S)-7-hydroxy-3-phenylchroman-4-yl)pyridin-2-yl)-7-azaspiro[3.5]nonan-2-yl)methyl)-7-oxo-5,7-dihydro-2H,6H-spiro[furo[2,3-f]isoindole-3,4′-piperidin]-6-yl)piperidine-2,6-dione] | 50 to 75 | 50 to 75 | < 1 | < 1 |
| O=C1CCC(Nc2ccc3c(c2)OC[C@H]2CN(CC4CCN(c5ccc([C@@H]6c7ccc(O)cc7OC[C@@H]6c6ccccc6)cc5)CC4)CCN32)C(=O)N1 (single isomer, unassigned) [Compound A91, 3-(((R)-3-((1-(4-((3S,4R)-7-hydroxy-3-phenylchroman-4-yl)phenyl)piperidin-4-yl)methyl)-1,2,3,4,4a,5-hexahydrobenzo[b]pyrazino[1,2-d][1,4]oxazin-8-yl)amino)piperidine-2,6-dione hydrochloride] | 50 to 75 | 50 to 75 | – | – |
| O=C1CCC(N2C(=O)c3cc4c(cc3C2=O)CN(CC(=O)N2CCC3(CC2)CCN(c2ccc([C@@H]5c6ccc(O)cc6OC[C@@H]5c5ccccc5)cc2)CC3)C4)C(=O)N1 (single isomer, unassigned) [Compound A3] | 25 to 50 | – | 1 to 10 | – |
| O=C1CC[C@@H](N2Cc3cc4c(cc3C2=O)OC[C@H]2CN(CC3COC5(CCN(c6ccc(C7c8ccc(O)cc8OCC7c7ccccc7)cc6)CC5)C3)CCN42)C(=O)N1 (stereo in doubt) [Compound A139, (3R)-3-((4aR)-3-((8-(4-((3R,4S)-7-hydroxy-3-phenylchroman-4-yl)phenyl)-1-oxa-8-azaspiro[4.5]decan-3-yl)methyl)-8-oxo-1,2,3,4,4a, 5,8,10-octahydro-9H-pyrazino[1′,2′:4,5][1,4]oxazino[2,3-f]isoindol-9-yl)piperidine-2,6-dione] | 50 to 75 | 50 to 75 | < 1 | < 1 |
| O=C1CC[C@@H](N2Cc3c(ccc4c3OCC43CCN(CC4CC5(CCN(c6ccc([C@H]7c8ccc(O)cc8OC[C@H]7c7ccccc7)cc6)CC5)C4)CC3)C2=O)C(=O)N1 [Compound A143, (R)-3-(1′-((7-(4-((3R,4S)-7-hydroxy-3-phenylchroman-4-yl)phenyl)-7-azaspiro[3.5]nonan-2-yl)methyl)-6-oxo-6,8-dihydro-2H,7H-spiro[furo[2,3-e]isoindole-3,4′-piperidin]-7-yl)piperidine-2,6-dione] | 25 to 50 | 25 to 50 | 10 to 100 | 10 to 100 |
| COc1ccc([C@H]2COc3cc(O)ccc3[C@H]2c2ccc(N3CCC(CN4CCN5c6ccc7c(c6OC[C@H]5C4)CN(C4CCC(=O)NC4=O)C7=O)CC3)cc2)cc1 (single isomer, unassigned) [Compound A16] | 50 to 75 | – | – | – |
| O=C1CCC(N2Cc3cc4c(cc3C2=O)OCC42CCN(CC3CCN(c4ccc([C@@H]5c6ccc(O)cc6OC[C@@H]5c5ccccc5)cc4)CC3)CC2)C(=O)N1 (stereo partly drawn) [Compound A86, 3-(1′-((1-(4-((3S,4R)-7-hydroxy-3-phenylchroman-4-yl)phenyl)piperidin-4-yl)methyl)-7-oxo-5,7-dihydro-2H,6H-spiro[furo[2,3-f]isoindole-3,4′-piperidin]-6-yl)piperidine-2,6-dione] | – | 25 to 50 | – | < 1 |
| O=C1CCC(N2Cc3cc4c(cc3C2=O)OC[C@@H]2CN(CC3CCN(c5ccc([C@@H]6c7ccc(O)cc7OC[C@@H]6c6ccccc6)cn5)CC3)CCN42)C(=O)N1 (single isomer, unassigned) [Compound A70, 3-((S)-3-((1-(5-((3S,4R)-7-hydroxy-3-phenylchroman-4-yl)pyridin-2-yl)piperidin-4-yl)methyl)-8-oxo-1,2,3,4,4a,5,8,10-octahydro-9H-pyrazino[1′,2′:4,5][1,4]oxazino[2,3-f]isoindol-9-yl)piperidine-2,6-dione] | < 25 | 25 to 50 | – | – |
| O=C1CCC(N2Cc3cc4c(cc3C2=O)OCC42CCN(CC3CC4(CCN(c5ccc([C@@H]6c7ccc(O)cc7OC[C@@H]6c6ccccc6)cc5)CC4)C3)CC2)C(=O)N1 (stereo partly drawn) [Compound A71, 3-(1′-((7-(4-((3S,4R)-7-hydroxy-3-phenylchroman-4-yl)phenyl)-7-azaspiro[3.5]nonan-2-yl)methyl)-7-oxo-5,7-dihydro-2H,6H-spiro[furo[2,3-f]isoindole-3,4′-piperidin]-6-yl)piperidine-2,6-dione] | 50 to 75 | 50 to 75 | < 1 | < 1 |
| O=C1CCC(N2Cc3cc4c(cc3C2=O)OC[C@@H]2CN(CC3CCN(c5ccc([C@@H]6c7ccc(O)cc7OC[C@@H]6c6ccccc6)cc5F)CC3)CCN42)C(=O)N1 (single isomer, unassigned) [Compound A2] | 50 to 75 | – | – | – |
| COc1cc(N2CCC(CN3CCC(c4ccc(N[C@H]5CCC(=O)NC5=O)cc4)CC3)CC2)ccc1[C@@H]1c2ccc(O)cc2OC[C@@H]1c1ccccc1 (stereo in doubt) [Compound A149, (S)-3-((4-(1-((1-(4-((3S,4R)-7-hydroxy-3-phenylchroman-4-yl)-3-methoxyphenyl)piperidin-4-yl)methyl)piperidin-4-yl)phenyl)amino)piperidine-2,6-dione] | 50 to 75 | 50 to 75 | < 1 | < 1 |
| COc1ccc([C@H]2COc3cc(O)ccc3[C@H]2c2ccc(N3CCC(CN4CCN5c6ccc7c(c6OC[C@H]5C4)CN(C4CCC(=O)NC4=O)C7=O)CC3)cc2)cc1 (single isomer, unassigned) [Compound A16, 3-((R)-7-((1-(4-((3S,4R)-7-hydroxy-3-(4-methoxyphenyl)chroman-4-yl)phenyl)piperidin-4-yl)methyl)-1-oxo-1,3,5,5a, 6,7,8,9-octahydro-2H-pyrazino[1′,2′:4,5][1,4]oxazino[2,3-e]isoindol-2-yl)piperidine-2,6-dione] | – | – | < 1 | – |
| O=C1CC[C@@H](N2Cc3c(ccc4c3OC[C@@H]3CN(CC5COC6(CCN(c7ccc([C@@H]8c9ccc(O)cc9OC[C@@H]8c8ccccc8)cc7F)CC6)C5)CCN43)C2=O)C(=O)N1 (single isomer, unassigned) [Compound A158, (3R)-3-((5aS)-7-((8-(2-fluoro-4-((3S,4R)-7-hydroxy-3-phenylchroman-4-yl)phenyl)-1-oxa-8-azaspiro[4.5]decan-3-yl)methyl)-1-oxo-1,3,5,5a,6,7,8,9-octahydro-2H-pyrazino[1′,2′:4,5][1,4]oxazino[2,3-e]isoindol-2-yl)piperidine-2,6-dione] | 50 to 75 | ≥ 75 | – | – |
